# Reference: patent US20140309244A1, “NOVEL MICROBIOCIDES” (SYNGENTA PARTICIPATIONS AG, priority 2010, published 2014)
# Tested on: Puccinia recondita f. sp. tritici
# Test: Puccinia recondita f. sp. tritici / wheat / leaf disc preventative (brown rust)
# Type: in vivo
# Settings: foliar, wheat cv Kanzler leaf segments, inoculated 1 day after application, assessed 7-9 days after application, read-out: control of Puccinia recondita f. sp. tritici (percent disease control compared to untreated)
# Experimental: Puccinia recondita f. sp. tritici/Wheat/Leaf Disc Preventative (Brown Rust) Wheat leaf segments cultivated variety (cv) Kanzler were placed on agar in 24-well plates and sprayed with formulated test compound diluted in water at an application rate of 200 ppm. The leaf disks were inoculated with a spore suspension of the fungus 1 day after application. The inoculated leaf segments were incubated at 19° C. and 75% relative humidity under a light regime of 12/12 h (light/dark) in a climate cabinet and the activity of a compound was assessed as percent disease control compared to untreated when an appropriate level of disease damage appears in untreated check leaf segments (7-9 days after application). […].103
row,SMILES,pest or weed control at 200 ppm [%]
1,CO/N=C(\C)c1cccc(CCCO/N=C(\C)c2cccc(-c3cccc(OC)c3)n2)n1 [P.14],≥ 80
2,CC/C(=N\OC)c1cccc(CCCO/N=C(\C)c2cccc(C)n2)n1 [P.22],≥ 80
3,CO/N=C(\C)c1cccc(CCCO/N=C2\CCCc3c2nc2ccccc2c3C)n1 [P.55],≥ 80
4,CO/N=C(\C)c1cccc(CCCO/N=C2\CCCc3c2nc2cc(OC)ccc2c3C)n1 [P.69],≥ 80

# Tested on: Puccinia recondita f. sp. tritici
# Test: Puccinia recondita f. sp. tritici / wheat / leaf disc curative (brown rust)
# Type: in vivo
# Settings: foliar, wheat cv Kanzler leaf segments, applied 1 day after inoculation, assessed 6-8 days after application, read-out: control of Puccinia recondita f. sp. tritici (percent disease control compared to untreated)
# Experimental: Puccinia recondita f. sp. tritici/Wheat/Leaf Disc Curative (Brown Rust): Wheat leaf segments cv Kanzler were placed on agar in 24-well plates. The leaf segments were inoculated with a spore suspension of the fungus. The plates were stored in darkness at 19° C. and 75% relative humidity. The formulated test compound diluted in water was applied at an application rate of 200 ppm 1 day after inoculation.
row,SMILES,pest or weed control at 200 ppm [%]
1,CC/C(=N\OC)c1cccc(CCCO/N=C(\C)c2cccc(C)n2)n1 [P.22],≥ 80
2,CO/N=C(\C)c1cccc(CCCO/N=C2\CCCc3c2nc2ccccc2c3C)n1 [P.55],≥ 80
3,CO/N=C(\C)c1cccc(CCCO/N=C2\CCCc3c2nc2cc(OC)ccc2c3C)n1 [P.69],≥ 80

# Tested on: Phaeosphaeria nodorum (Septoria nodorum)
# Test: Phaeosphaeria nodorum (Septoria nodorum) / wheat / leaf disc preventative (glume blotch)
# Type: in vivo
# Settings: Parastagonospora nodorum, foliar, wheat cv Kanzler leaf segments, inoculated 2 days after application, assessed 5-7 days after application, read-out: control of Phaeosphaeria nodorum (percent disease control compared to untreated)
row,SMILES,pest or weed control at 200 ppm [%]
1,CO/N=C(\C)c1cccc(CCCO/N=C(\C)c2cccc(-c3cccc(OC)c3)n2)n1 [P.14],≥ 80
2,CC/C(=N\OC)c1cccc(CCCO/N=C(\C)c2cccc(C)n2)n1 [P.22],≥ 80
3,CO/N=C(\C)c1cccc(CCCO/N=C2\CCCc3c2nc2ccccc2c3C)n1 [P.55],≥ 80
4,CO/N=C(\C)c1cccc(CCCO/N=C2\CCCc3c2nc2cc(OC)ccc2c3C)n1 [P.69],≥ 80

# Tested on: Pyrenophora teres
# Test: Pyrenophora teres / barley / leaf disc preventative (net blotch)
# Type: in vivo
# Settings: foliar, barley cv Hasso leaf segments, inoculated two days after application, assessed 5-7 days after application, read-out: control of Pyrenophora teres (disease control compared to untreated)
row,SMILES,pest or weed control at 200 ppm [%]
1,CO/N=C(\C)c1cccc(CCCO/N=C(\C)c2cccc(-c3cccc(OC)c3)n2)n1 [P.14],≥ 80
2,CC/C(=N\OC)c1cccc(CCCO/N=C(\C)c2cccc(C)n2)n1 [P.22],≥ 80
3,CO/N=C(\C)c1cccc(CCCO/N=C2\CCCc3c2nc2ccccc2c3C)n1 [P.55],≥ 80

# Tested on: Botryotinia fuckeliana (Botrytis cinerea)
# Test: Botryotinia fuckeliana (Botrytis cinerea) / liquid culture (gray mould)
# Type: cell-based
# Settings: Vogels broth, 96-well plate, 24° C., 3-4 days after application, read-out: control of Botryotinia fuckeliana (inhibition of growth, photometric)
row,SMILES,inhibition at 200 ppm [%]
1,CC/C(=N\OC)c1cccc(CCCO/N=C(\C)c2cccc(C)n2)n1 [P.22],≥ 80
2,CO/N=C(\C)c1cccc(CCCO/N=C2\CCCc3c2nc2ccccc2c3C)n1 [P.55],≥ 80
3,CO/N=C(\C)c1cccc(CCCO/N=C2\CCCc3c2nc2cc(OC)ccc2c3C)n1 [P.69],≥ 80

# Tested on: Glomerella lagenarium (Colletotrichum lagenarium)
# Test: Glomerella lagenarium (Colletotrichum lagenarium) / liquid culture (anthracnose)
# Type: cell-based
# Settings: Colletotrichum orbiculare, PDB potato dextrose broth, 96-well plate, 24° C., 3-4 days after application, read-out: control of Glomerella lagenarium (inhibition of growth, photometric)
row,SMILES,inhibition at 200 ppm [%]
1,CC/C(=N\OC)c1cccc(CCCO/N=C(\C)c2cccc(C)n2)n1 [P.22],≥ 80
2,CO/N=C(\C)c1cccc(CCCO/N=C2\CCCc3c2nc2ccccc2c3C)n1 [P.55],≥ 80
3,CO/N=C(\C)c1cccc(CCCO/N=C2\CCCc3c2nc2cc(OC)ccc2c3C)n1 [P.69],≥ 80

# Tested on: Mycosphaerella arachidis (Cercospora arachidicola)
# Test: Mycosphaerella arachidis (Cercospora arachidicola) / liquid culture (early leaf spot)
# Type: cell-based
# Settings: PDB potato dextrose broth, 96-well plate, 24° C., 4-5 days after application, read-out: control of Mycosphaerella arachidis (inhibition of growth, photometric)
row,SMILES,inhibition at 200 ppm [%]
1,CO/N=C(\C)c1cccc(CCCO/N=C(\C)c2cccc(-c3cccc(OC)c3)n2)n1 [P.14],≥ 80
2,CC/C(=N\OC)c1cccc(CCCO/N=C(\C)c2cccc(C)n2)n1 [P.22],≥ 80
3,CO/N=C(\C)c1cccc(CCCO/N=C2\CCCc3c2nc2ccccc2c3C)n1 [P.55],≥ 80
4,CO/N=C(\C)c1cccc(CCCO/N=C2\CCCc3c2nc2cc(OC)ccc2c3C)n1 [P.69],≥ 80

# Tested on: Mycosphaerella graminicola (Septoria tritici)
# Test: Mycosphaerella graminicola (Septoria tritici) / liquid culture (Septoria blotch)
# Type: cell-based
# Settings: Zymoseptoria tritici, PDB potato dextrose broth, 96-well plate, 24° C., 4-5 days after application, read-out: control of Mycosphaerella graminicola (inhibition of growth, photometric)
row,SMILES,inhibition at 200 ppm [%]
1,CO/N=C(\C)c1cccc(CCCO/N=C(\C)c2cccc(-c3cccc(OC)c3)n2)n1 [P.14],≥ 80
2,CC/C(=N\OC)c1cccc(CCCO/N=C(\C)c2cccc(C)n2)n1 [P.22],≥ 80
3,CO/N=C(\C)c1cccc(CCCO/N=C2\CCCc3c2nc2ccccc2c3C)n1 [P.55],≥ 80
4,CO/N=C(\C)c1cccc(CCCO/N=C2\CCCc3c2nc2cc(OC)ccc2c3C)n1 [P.69],≥ 80

# Tested on: Gaeumannomyces graminis
# Test: Gaeumannomyces graminis / liquid culture (take-all of cereals)
# Type: cell-based
# Settings: liquid culture of mycelial fragments, PDB potato dextrose broth, 96-well plate, 24° C., 4-5 days after application, read-out: control of Gaeumannomyces graminis (inhibition of growth, photometric)
row,SMILES,inhibition at 200 ppm [%]
1,CO/N=C(\C)c1cccc(CCCO/N=C(\C)c2cccc(-c3cccc(OC)c3)n2)n1 [P.14],≥ 80
2,CC/C(=N\OC)c1cccc(CCCO/N=C(\C)c2cccc(C)n2)n1 [P.22],≥ 80
3,CO/N=C(\C)c1cccc(CCCO/N=C2\CCCc3c2nc2ccccc2c3C)n1 [P.55],≥ 80
4,CO/N=C(\C)c1cccc(CCCO/N=C2\CCCc3c2nc2cc(OC)ccc2c3C)n1 [P.69],≥ 80

# Tested on: Thanatephorus cucumeris (Rhizoctonia solani)
# Test: Thanatephorus cucumeris (Rhizoctonia solani) / liquid culture (foot rot, damping-off)
# Type: cell-based
# Settings: liquid culture of mycelia fragments, PDB potato dextrose broth, 96-well plate, 24° C., 3-4 days after application, read-out: control of Thanatephorus cucumeris (inhibition of growth, photometric)
# Experimental: Thanatephorus cucumeris (Rhizoctonia solani)/Liquid Culture (Foot Rot, Damping-Off): Mycelia fragments of a newly grown liquid culture of the fungus are directly mixed into nutrient broth (PDB potato dextrose broth). After placing a DMSO solution of the test compounds into a 96-well microtiter plate at an application rate of 200 ppm, the nutrient broth containing the fungal material was added. The test plates were incubated at 24° C. and the inhibition of growth was determined photometrically 3-4 days after application.
row,SMILES,inhibition at 200 ppm [%]
1,CO/N=C(\C)c1cccc(CCCO/N=C2\CCCc3c2nc2cc(OC)ccc2c3C)n1 [P.69],≥ 80

# Tested on: Monographella nivalis (Microdochium nivale)
# Test: Monographella nivalis (Microdochium nivale) / liquid culture (foot rot cereals)
# Type: cell-based
# Settings: PDB potato dextrose broth, 96-well plate, 24° C., 4-5 days after application, read-out: control of Monographella nivalis (inhibition of growth, photometric)
# Experimental: Monographella nivalis (Microdochium nivale)/Liquid Culture (Foot Rot Cereals): Conidia of the fungus from cryogenic storage were directly mixed into nutrient broth (PDB potato dextrose broth). After placing a DMSO solution of test compound into a 96-well microtiter plate at an application rate of 200 ppm, the nutrient broth containing the fungal spores was added. The test plates were incubated at 24° C. and the inhibition of growth was determined photometrically 4-5 days after application. […].103
row,SMILES,inhibition at 200 ppm [%]
1,CC/C(=N\OC)c1cccc(CCCO/N=C(\C)c2cccc(C)n2)n1 [P.22],≥ 80
2,CO/N=C(\C)c1cccc(CCCO/N=C2\CCCc3c2nc2ccccc2c3C)n1 [P.55],≥ 80
3,CO/N=C(\C)c1cccc(CCCO/N=C2\CCCc3c2nc2cc(OC)ccc2c3C)n1 [P.69],≥ 80

# Tested on: Blumeria graminis f. sp. tritici (Erysiphe graminis f. sp. tritici)
# Test: Blumeria graminis f. sp. tritici (Erysiphe graminis f. sp. tritici) / wheat / leaf disc preventative (powdery mildew on wheat)
# Type: in vivo
# Settings: foliar, wheat cv. Kanzler leaf segments, inoculated 1 day after application, assessed 6-8 days after application, read-out: control of Blumeria graminis (percent disease control compared to untreated)
row,SMILES,pest or weed control at 200 ppm [%]
1,CC/C(=N\OC)c1cccc(CCCO/N=C(\C)c2cccc(C)n2)n1 [P.22],≥ 80
2,CO/N=C(\C)c1cccc(CCCO/N=C2\CCCc3c2nc2ccccc2c3C)n1 [P.55],≥ 80
3,CO/N=C(\C)c1cccc(CCCO/N=C2\CCCc3c2nc2cc(OC)ccc2c3C)n1 [P.69],≥ 80
